Data as given in ChEMBL document CHEMBL3885861, “Open TG-GATES”.

Species: Rattus norvegicus
Assay: Open TG-GATES - Regimen: Single
Type: toxicity, organism-based, Sprague-Dawley
Parameters: regimen Single, gender Male, age 6 weeks
Conditions: in vivo, po, 50 mg/kg, route gavage, dose level Middle; for APTT / Bas / Eos / Fbg / Hb / Ht / Lym / MCH / MCHC / MCV / Mono / Neu / PT / Plat / RBC / Ret / WBC: tissue Blood; for KIDNEY_L / KIDNEY_R / KIDNEY_TOTAL: tissue Kidney; for LIVER: tissue Liver; for A/G / ALP / ALT / AST / BUN / CRE / Ca / Cl / DBIL / GLC / IP / K / LDH / Na / PL / RALB / TBIL / TC / TG / TP / gamma-GTP: tissue Plasma

With `CN(C)CCC=C1c2ccccc2CCc2ccccc21` [AMITRIPTYLINE] the TERMINAL_BW (3 h) was 194.1 g, the APTT (3 h) was 16.5 s and the Bas (3 h) was 0.4%. The Eos (3 h) was 1%, the Fbg (3 h) was 273 mg/dL and the Hb (3 h) was 13.2 g/dL. The Ht (3 h) was 41.1%, the Lym (3 h) was 74% and the MCH (3 h) was 21.1 pg. The MCHC (3 h) was 32.2%, the MCV (3 h) was 65.4 fL and the Mono (3 h) was 3.4%. The Neu (3 h) was 20.4%, the PT (3 h) was 15.8 s and the Plat (3 h) was 128.6 x10_4/uL. For the same compound, the RBC (3 h) was 629.2 x10_4/ul, the Ret (3 h) was 9.2% and the WBC (3 h) was 102.1 x10_2/uL. It also gave a KIDNEY_L (3 h) of 0.9 g, a KIDNEY_R (3 h) of 0.9 g and a KIDNEY_TOTAL (3 h) of 1.7 g. It also gave an LIVER (3 h) of 8.7 g, an A/G (3 h) of 0.8 and an ALP (3 h) of 1574.4 IU/L. It also gave an ALT (3 h) of 62.8 IU/L, an AST (3 h) of 79 IU/L and a BUN (3 h) of 8 mg/dL. For the same compound, the CRE (3 h) was 0.2 mg/dL, the Ca (3 h) was 11 mg/dL and the Cl (3 h) was 107.8 meq/L. It also gave a DBIL (3 h) of 0.012 mg/dL, a GLC (3 h) of 192.8 mg/dL and an IP (3 h) of 9.3 mg/dL. It also gave a K (3 h) of 4.2 meq/L, an LDH (3 h) of 90.8 IU/L and a Na (3 h) of 144.2 meq/L. It also gave a PL (3 h) of 143.2 mg/dL, an RALB (3 h) of 2.5 g/dL and a TBIL (3 h) of 0.062 mg/dL. It also gave a TC (3 h) of 78.8 mg/dL, a TG (3 h) of 42.8 mg/dL and a TP (3 h) of 5.5 g/dL. The gamma-GTP (3 h) was 0.8 IU/L, the TERMINAL_BW (6 h) was 191.7 g and the APTT (6 h) was 15.9 s. For the same compound, the Bas (6 h) was 0.4%, the Eos (6 h) was 1% and the Fbg (6 h) was 283 mg/dL. For the same compound, the Hb (6 h) was 13.1 g/dL, the Ht (6 h) was 40.7% and the Lym (6 h) was 72.6%. It also gave an MCH (6 h) of 20.9 pg, an MCHC (6 h) of 32.4% and an MCV (6 h) of 64.7 fL. For the same compound, the Mono (6 h) was 3%, the Neu (6 h) was 22.4% and the PT (6 h) was 15.9 s. For the same compound, the Plat (6 h) was 117.4 x10_4/uL, the RBC (6 h) was 629.4 x10_4/ul and the Ret (6 h) was 9.3%. For the same compound, the WBC (6 h) was 84.5 x10_2/uL, the KIDNEY_L (6 h) was 0.9 g and the KIDNEY_R (6 h) was 0.9 g. The KIDNEY_TOTAL (6 h) was 1.8 g, the LIVER (6 h) was 7.9 g and the A/G (6 h) was 0.9. For the same compound, the ALP (6 h) was 1530.6 IU/L, the ALT (6 h) was 47 IU/L and the AST (6 h) was 76.4 IU/L. It also gave a BUN (6 h) of 6.8 mg/dL, a CRE (6 h) of 0.1 mg/dL and a Ca (6 h) of 10.7 mg/dL. For the same compound, the Cl (6 h) was 106.8 meq/L, the DBIL (6 h) was 0.006 mg/dL and the GLC (6 h) was 179.2 mg/dL. For the same compound, the IP (6 h) was 9.9 mg/dL, the K (6 h) was 4.1 meq/L and the LDH (6 h) was 65.4 IU/L. The Na (6 h) was 143.4 meq/L, the PL (6 h) was 138.2 mg/dL and the RALB (6 h) was 2.5 g/dL. For the same compound, the TBIL (6 h) was 0.07 mg/dL, the TC (6 h) was 81.2 mg/dL and the TG (6 h) was 34.8 mg/dL. For the same compound, the TP (6 h) was 5.5 g/dL, the gamma-GTP (6 h) was 0.8 IU/L and the TERMINAL_BW (9 h) was 188 g. It also gave an APTT (9 h) of 16.3 s, a Bas (9 h) of 0% and an Eos (9 h) of 1%. It also gave a Fbg (9 h) of 282.6 mg/dL, a Hb (9 h) of 13.2 g/dL and a Ht (9 h) of 40.4%. It also gave a Lym (9 h) of 74%, an MCH (9 h) of 21.1 pg and an MCHC (9 h) of 32.7%. The MCV (9 h) was 64.5 fL, the Mono (9 h) was 2.2% and the Neu (9 h) was 22%. The PT (9 h) was 15.7 s, the Plat (9 h) was 117.9 x10_4/uL and the RBC (9 h) was 626.2 x10_4/ul. For the same compound, the Ret (9 h) was 8.6%, the WBC (9 h) was 86.3 x10_2/uL and the KIDNEY_L (9 h) was 0.8 g. For the same compound, the KIDNEY_R (9 h) was 0.8 g, the KIDNEY_TOTAL (9 h) was 1.6 g and the LIVER (9 h) was 7.4 g. For the same compound, the A/G (9 h) was 0.9, the ALP (9 h) was 1395.8 IU/L and the ALT (9 h) was 42.4 IU/L. The AST (9 h) was 73.8 IU/L, the BUN (9 h) was 8 mg/dL and the CRE (9 h) was 0.1 mg/dL. The Ca (9 h) was 10.8 mg/dL, the Cl (9 h) was 107.2 meq/L and the DBIL (9 h) was 0.014 mg/dL. For the same compound, the GLC (9 h) was 170.2 mg/dL, the IP (9 h) was 9.9 mg/dL and the K (9 h) was 4.2 meq/L. It also gave an LDH (9 h) of 72.8 IU/L, a Na (9 h) of 142.4 meq/L and a PL (9 h) of 143.4 mg/dL. It also gave an RALB (9 h) of 2.5 g/dL, a TBIL (9 h) of 0.062 mg/dL and a TC (9 h) of 79.2 mg/dL. For the same compound, the TG (9 h) was 49.8 mg/dL, the TP (9 h) was 5.4 g/dL and the gamma-GTP (9 h) was 1 IU/L. It also gave a TERMINAL_BW (24 h) of 205.9 g, an APTT (24 h) of 16.7 s and a Bas (24 h) of 0.2%. For the same compound, the Eos (24 h) was 1%, the Fbg (24 h) was 268 mg/dL and the Hb (24 h) was 13.1 g/dL. The Ht (24 h) was 39.8%, the Lym (24 h) was 79.2% and the MCH (24 h) was 21.1 pg. It also gave an MCHC (24 h) of 32.8%, an MCV (24 h) of 64.4 fL and a Mono (24 h) of 2.6%. The Neu (24 h) was 16.2%, the PT (24 h) was 16.4 s and the Plat (24 h) was 117.1 x10_4/uL. It also gave an RBC (24 h) of 618.8 x10_4/ul, a Ret (24 h) of 8.8% and a WBC (24 h) of 101.4 x10_2/uL. It also gave a KIDNEY_L (24 h) of 0.9 g, a KIDNEY_R (24 h) of 0.9 g and a KIDNEY_TOTAL (24 h) of 1.7 g. It also gave an LIVER (24 h) of 9.2 g, an A/G (24 h) of 0.8 and an ALP (24 h) of 1528.4 IU/L. The ALT (24 h) was 49.8 IU/L, the AST (24 h) was 72.6 IU/L and the BUN (24 h) was 14.2 mg/dL. For the same compound, the CRE (24 h) was 0.2 mg/dL, the Ca (24 h) was 11 mg/dL and the Cl (24 h) was 105.2 meq/L. The DBIL (24 h) was 0.018 mg/dL, the GLC (24 h) was 181.6 mg/dL and the IP (24 h) was 7.1 mg/dL. For the same compound, the K (24 h) was 4.3 meq/L, the LDH (24 h) was 69.2 IU/L and the Na (24 h) was 142.6 meq/L. The PL (24 h) was 153 mg/dL, the RALB (24 h) was 2.6 g/dL and the TBIL (24 h) was 0.056 mg/dL. It also gave a TC (24 h) of 82.6 mg/dL, a TG (24 h) of 97.8 mg/dL and a TP (24 h) of 5.6 g/dL. For the same compound, the gamma-GTP (24 h) was 0.2 IU/L.
